{"source": "patent US20130143869A1", "about": "“USE OF A CATIONIC AMPHIPHILIC DRUG FOR THE PREPARATION OF A FORMULATION FOR THE REDUCTION OF SUBCUTANEOUS ADIPOSE TISSUE” (Merz Pharma GmbH & CO. KGaA, priority 2010, published 2013)", "type_in_all_cases": "cell-based", "key": {"human adipocyte cells [1]": {"tested_on": "human adipocyte cells", "test": "Membrane integrity: LDH release from human adipocytes (LDH assay)", "settings": "for IC50: read-out: IC50 48 hrs LDH, Example 2, 48 hrs; for Rel. max. LDH release [%] 48 hrs: Example 1, 48 hrs, relative to Triton-x 100 maximal LDH release", "method": "(§1) HWP were obtained in passage two and differentiated in vitro to mature adipocytes. Briefly, cells were initially cultured in preadipocyte growth medium at 37° C. and 5% CO2 to 70-80% confluency. Then, cells were seeded at 40,000 cells/ml into 96-well flat bottom tissue culture plates and incubated overnight to allow attachment. Differentiation was initiated by changing the medium to preadipopcyte differentiation medium for an additional 72 hrs. After differentiation was induced, the medium was replaced by adipocyte nutrition medium that was refreshed every 2-3 days over a period of 14 days until termination of differentiation. Differentiation status was checked via nile red staining of control cells.\n(§2) For the cytotoxicity assays in this study pre-adipocytes were seeded at 40,000 cells/ml into a 96-well microtiter flat bottom plate. The test items were prepared in separate plates starting with the double concentrated maximal test concentration followed by a 1:2 serial dilution (Chloroquine and Fluoxetine 1:3) and then added to the cells. The test items were tested at 6 replicates/concentration. Each plate included negative controls (media plus solvent, 6 replicates), a drug interference control (all concentrations, duplicates), a background control (14 replicates), a positive (=cytotoxic) control (6 replicates doxorubicin, 1 μM final) and a positive control for maximal LDH-release (2 replicates, 2% Triton-x 100 final).\n(§3) Relative cell viability was determined after 48 hrs exposure based on metabolic activity (i.e. resazurin conversion). Using a Victor^3 1420 Multilabel Counter, the resazurin conversion to the fluorescent resorufin by metabolically active cells was recorded at 560Ex/590Em. Membrane integrity was measured after 6 hrs and 48 hrs and the enzymatic activity of released LDH in the cell supernatant after 30 min of incubation at 492 nmabsorption/690 nmreference by a spectrophotometer. The volume withdrawn from the cultures for the LDH-assay was not replaced to keep cells in a less disturbed environment. The assay was conducted in a multiplexed format.\nFor the dose-response relationship, absolute absorption (OD treated wells−background) was plotted against the test item concentrations representing LDH leakage from the cells. For a better estimation of the test items' potential influencing the membrane integrity, relative, maximal LDH release in percent (see Table 2) was also calculated according to the following formula: […]\n(§4) The effects on cytotoxicity in human adipocyte cells of a further 9 compounds were tested. The experimental set-up was identical to the one in example 1."}, "human adipocyte cells [2]": {"tested_on": "human adipocyte cells", "test": "Cytotoxicity assay: metabolic activity (resazurin conversion) of human adipocytes", "method": "as §1\nThe test items 1 to 8 were prepared according to Table 1 to yield respective stock solutions. Said stock solutions were further diluted in assay media to obtain the double concentrated working solutions, which were subsequently diluted 1:2 in the final assay. […] Deoxycholate Na was selected as “reference compound”.\nas §2, §3\nIn order to derive meaningful IC50 values from the primary data, the entire biological window of activity ranging from 0% to 100% viability should be covered and the resolution has to be sufficient. To improve data quality, the serial dilution factor used in previous experiments was reduced to a 1:2 and 1:3 dilution. […] IC50 (half maximal inhibitory concentration, calculated via Sigma Plot 10) values were determined for each test substance 1 to 8.\nas §4"}, "Human white adipocytes": {"tested_on": "Human white adipocytes", "test": "Apoptosis/necrosis detection, Annexin V-FITC/PI flow cytometry", "settings": "for Early Apoptosis [A-V*/PI*] / Necrosis/ Late Apoptosis [A-V*/PI*] / Normal [A-V*/PI]: 500 μM", "source_text": "The apoptotic program is characterized by certain morphologic features. Loss of plasma membrane asymmetry is a well established indicator for apoptotic cells. In apoptotic cells, the membrane phospholipid phosphatidylserine (PS) is translocated from the inner to the outer leaflet of the plasma membrane, thereby exposing PS to the external environment. In general, this PS translocation is preceded by caspase activation. Annexin V labelled with FITC is a Ca^2+ dependent phospholipid-binding protein with high affinity for PS and binds to cells with externalized PS. Cells stained with Annexin V*FITC are therefore considered in an early apoptotic stage.\nStaining with Annexin V-FITC is typically used in conjunction with a vital dye such as propidium iodide (PI) to allow discrimination between early apoptotic and necrotic cells. Necrotic dying cells are PI positive only. Cells that are viable are Annexin V and PI negative; cells that entered apoptosis are Annexin V positive and PI negative and cells that are in post apoptotic and/or necrotic phase are both Annexin V and PI positive.\nHuman white adipocytes that had been differentiated in vitro from pre-adipocytes as describe above were used. Measurements were performed after 5 hrs to catch early apoptotic/necrotic events and after 24 hrs and 48 hrs for later stages. Naringenin at 500 μM (reported to induce apoptosis in adipocytes) was used as positive control and media plus solvent was used as negative control. Each compound was tested in three different concentrations. […] Two more concentrations, one below and one above the IC50 were added.\nFlow cytometry was performed with a dual laser FC500. After completion of the staining procedure, tubes were grouped into a FC500 carousel for semi-automated data acquisition. Cells were first acquired in “Setup” mode to tune the parameters FS, SS, FL1 and FL2. After completion of the setup, baseline compensation was switched on and cells were acquired. Cells were acquired without life-gate but using FS threshold to exclude debris. All cells were acquired using individually corrected settings.\nAfter completion of data acquisition, analysis was done using the CXP software. If necessary, software-based post acquisition compensation was performed to fine-correct for fluorescence overlap not adjusted for during the acquisition phase. Quadrant markers were set based on the negative controls."}, "[3]": {"settings": "Homo sapiens, Adipocyte, read-out: IC50 48 hrs Resazurin, Example 2, 48 hrs"}}, "note": "Counter-ions that a name gives are not always drawn.", "data": [{"compound": "OCCN1CCN(CCCN2c3ccccc3Sc3ccc(Cl)cc32)CC1", "note": "[Perphenazine]", "values": [{"measurement": "IC50", "setting": "human adipocyte cells [1]; Homo sapiens, Adipocyte", "result": "~20.3", "unit": "µM"}, {"measurement": "IC50", "setting": "human adipocyte cells [2]; [3]", "result": 25, "unit": "µM"}]}, {"compound": "Clc1ccc(C(Cn2ccnc2)OCc2ccsc2Cl)c(Cl)c1", "note": "(stereo not shown) [Thioconazole]", "values": [{"measurement": "IC50", "setting": "human adipocyte cells [1]", "result": "~7.4", "unit": "µM"}, {"measurement": "IC50", "setting": "human adipocyte cells [2]; read-out: IC50 48 hrs Resazurin, Example 2, 48 hrs", "result": 10.5, "unit": "µM"}]}, {"compound": "COc1ccc([C@@H]2Sc3ccccc3N(CCN(C)C)C(=O)[C@@H]2OC(C)=O)cc1.Cl", "note": "[Test substance 6, Diltiazem HCl]", "values": [{"measurement": "Rel. max. LDH release [%] 48 hrs", "setting": "human adipocyte cells [1]", "result": 94.5, "unit": "%"}, {"measurement": "IC50", "setting": "human adipocyte cells [2]; read-out: IC50 (metabolic activity after 48 hrs), Example 1, 48 hrs exposure, resazurin", "result": 800, "unit": "µM"}]}, {"compound": "COc1ccccc1OCCNCC(O)COc1cccc2[nH]c3ccccc3c12", "note": "(stereo not shown) [Carvedilol]", "values": [{"measurement": "IC50", "setting": "human adipocyte cells [1]; Homo sapiens, Adipocyte", "result": "~22.2", "unit": "µM"}, {"measurement": "IC50", "setting": "human adipocyte cells [2]; [3]", "result": 28.4, "unit": "µM"}]}, {"compound": "CN1CCN(CCCN2c3ccccc3Sc3ccc(C(F)(F)F)cc32)CC1", "note": "[Trifluoperazine]", "values": [{"measurement": "IC50", "setting": "human adipocyte cells [1]; Homo sapiens, Adipocyte", "result": "~14.3", "unit": "µM"}, {"measurement": "IC50", "setting": "human adipocyte cells [2]; [3]", "result": 17.4, "unit": "µM"}]}, {"compound": "CN(C)CCC[C@@]1(c2ccc(F)cc2)OCc2cc(C#N)ccc21", "note": "[Test substance 3, Escitalopram oxalate]", "values": [{"measurement": "Rel. max. LDH release [%] 48 hrs", "setting": "human adipocyte cells [1]", "result": 88.0, "unit": "%"}, {"measurement": "IC50", "setting": "human adipocyte cells [2]; Homo sapiens, Adipocyte, read-out: IC50 (metabolic activity after 48 hrs), Example 1, 48 hrs exposure, resazurin", "result": 491, "unit": "µM"}]}, {"compound": "O=C1C[C@@H](c2ccc(O)cc2)Oc2cc(O)cc(O)c21", "note": "[Naringenin]", "values": [{"measurement": "Early Apoptosis [A-V*/PI*]", "setting": "Human white adipocytes; 5 hrs", "result": 16}, {"measurement": "Necrosis/ Late Apoptosis [A-V*/PI*]", "setting": "Human white adipocytes; 5 hrs", "result": 0.8}, {"measurement": "Normal [A-V*/PI]", "setting": "Human white adipocytes; 5 hrs", "result": 83.2}, {"measurement": "Early Apoptosis [A-V*/PI*]", "setting": "Human white adipocytes; 24 hrs", "result": 14.1}, {"measurement": "Necrosis/ Late Apoptosis [A-V*/PI*]", "setting": "Human white adipocytes; 24 hrs", "result": 4.1}, {"measurement": "Normal [A-V*/PI]", "setting": "Human white adipocytes; 24 hrs", "result": 81.8}, {"measurement": "Early Apoptosis [A-V*/PI*]", "setting": "Human white adipocytes; 48 hrs", "result": 12.1}, {"measurement": "Necrosis/ Late Apoptosis [A-V*/PI*]", "setting": "Human white adipocytes; 48 hrs", "result": 5.7}, {"measurement": "Normal [A-V*/PI]", "setting": "Human white adipocytes; 48 hrs", "result": 81.2}, {"measurement": "apoptosis/necrosis induction in human adipocytes (in words)", "setting": "Human white adipocytes; 5, 24, 48 hrs, concentrations as in Table 4", "result": "small but clear increase in apoptotic/necrotic adipocytes over time"}]}]}
